What was measured:
[1] = biological target: T1, xanthine oxidase from buttermilk (Bos taurus, UniProt P80457); test: Xanthine oxidase inhibitory assay (XOI); format: biochemical; settings: for xanthine oxidase inhibitory effect (in words): discussion; for IC50: xanthine oxidase inhibition, 295 nm, mean ± SEM (n = 3), NA: not active
T1 construct: 0.3 U/mL enzymes (xanthine oxidase from buttermilk); purchased Sigma-Aldrich (Singapore); host or cells: buttermilk (natural source)
Experimental: XO catalyzes the oxidation of hypoxanthine to xanthine and subsequently to uric acid. The inhibition of XO reduces both vascular oxidative stress and circulating levels of uric acid. This assay is based on the fact that the superoxide anions are generated by the xanthine. The xanthine oxidase inhibitory activity was measured spectrophotometrically (Tecan NanoQuant Infinite M200, Switzerland) at 295 nm under aerobic condition with slight modification. The reaction mixture contained 50 mM phosphate buffer (pH 7.5), 0.15 mM xanthine (substrate), and 0.3 U/mL enzymes (xanthine oxidase from buttermilk). Samples were prepared by dissolving 1 mg in 5% DMSO in MeOH which gives sample concentration of 144.0 μg/mL in assay. […] The absorption increment at 295 nm indicates the formation of […] of uric acid/min at 25°C. […] All determination was done in triplicate and half maximal concentration (IC50) values were calculated from the percentage of inhibition. XO inhibition activity was expressed as the percentage inhibition of XO as follows:(3) % of inhibition=AbsA−B−C−D/AbsA−B×100, where A is the negative control with B as the blank of A which is without the enzyme and the sample while C is the activity of the sample with enzyme with D as the blank of the sample without enzyme.

[2] = ABTS+ radical scavenging assay; settings: 734 nm, mean ± SEM (n = 3)
Experimental: An improved ABTS^+ radical decolorization assay was carried out involving direct production of the blue/green ABTS^+ chromophore through the reaction between ABTS and potassium persulfate. Addition of antioxidant to the preformed radical cation reduces it to ABTS to an extent on a time scale depending on the antioxidant activity, the concentration of the antioxidant, and the duration of the reaction. 1 ml ABTS was dissolved in water to make 7 mM concentration of the resultant solution. […] The resultant reaction mixture was allowed to stand in the dark at room temperature for 12–16 h before being used. The ABTS^+ radical solution was diluted with MeOH to an absorbance of 0.7 (±0.02) at 734 nm. Then, 100 μl of sample at various concentrations (1000–0.4889 μg/mL) was mixed with 100 μL of diluted ABTS^+ radical. Each concentration was analyzed in triplicate and the percentage decrease of absorbance at 734 nm with a microplate reader (Tecan NanoQuant Infinite M200, Switzerland) was calculated for each point and the antioxidant capacity of the tested compounds was expressed as percent inhibition (%). The radical scavenging activity of the compounds was measured according to the following equation [29]:(2) % inhibition=Acontrol−Asample/Acontrol×100. IC50 values were calculated by linear regression of plots, and the average percent of scavenging capacity was taken from three replicates. Trolox was used as a standard in comparison for the determination of the antioxidant activity of the flavonoids.

T1 sequence (P80457 whole entry): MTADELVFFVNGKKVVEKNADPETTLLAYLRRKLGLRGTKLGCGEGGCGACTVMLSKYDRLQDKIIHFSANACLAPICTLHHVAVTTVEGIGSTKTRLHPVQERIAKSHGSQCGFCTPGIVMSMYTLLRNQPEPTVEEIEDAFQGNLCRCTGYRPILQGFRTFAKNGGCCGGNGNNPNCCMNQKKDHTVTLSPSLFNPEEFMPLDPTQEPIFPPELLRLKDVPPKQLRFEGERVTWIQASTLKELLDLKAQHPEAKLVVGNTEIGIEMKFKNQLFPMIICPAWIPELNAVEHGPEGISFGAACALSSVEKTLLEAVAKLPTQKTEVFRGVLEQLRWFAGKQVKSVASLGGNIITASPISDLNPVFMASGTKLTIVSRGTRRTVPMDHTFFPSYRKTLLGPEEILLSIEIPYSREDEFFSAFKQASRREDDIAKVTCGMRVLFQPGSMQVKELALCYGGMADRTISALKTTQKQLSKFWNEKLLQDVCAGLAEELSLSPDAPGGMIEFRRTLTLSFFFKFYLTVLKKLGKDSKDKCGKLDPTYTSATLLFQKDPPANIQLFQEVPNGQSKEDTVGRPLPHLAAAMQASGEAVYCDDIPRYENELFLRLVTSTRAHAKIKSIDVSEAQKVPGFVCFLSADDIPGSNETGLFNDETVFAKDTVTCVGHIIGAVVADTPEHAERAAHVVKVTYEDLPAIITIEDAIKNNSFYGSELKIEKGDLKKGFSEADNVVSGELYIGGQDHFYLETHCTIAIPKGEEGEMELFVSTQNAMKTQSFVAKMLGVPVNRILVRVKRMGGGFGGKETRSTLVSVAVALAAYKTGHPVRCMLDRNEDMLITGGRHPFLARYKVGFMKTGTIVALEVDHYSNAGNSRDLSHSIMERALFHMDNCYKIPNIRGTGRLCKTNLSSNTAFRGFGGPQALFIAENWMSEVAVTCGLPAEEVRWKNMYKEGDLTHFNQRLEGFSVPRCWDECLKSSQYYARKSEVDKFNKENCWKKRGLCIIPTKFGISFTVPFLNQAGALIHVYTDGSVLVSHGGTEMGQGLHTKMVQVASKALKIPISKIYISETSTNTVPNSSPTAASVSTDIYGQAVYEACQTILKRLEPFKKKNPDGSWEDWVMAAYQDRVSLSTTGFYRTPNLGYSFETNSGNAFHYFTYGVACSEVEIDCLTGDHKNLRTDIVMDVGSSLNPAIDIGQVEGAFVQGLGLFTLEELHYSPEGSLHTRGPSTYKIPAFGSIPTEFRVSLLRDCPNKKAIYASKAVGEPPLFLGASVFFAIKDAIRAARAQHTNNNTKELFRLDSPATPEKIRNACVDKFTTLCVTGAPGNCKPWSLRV

SMILES | xanthine oxidase inhibitory effect (in words) [1] | IC50 [1] [µM] | IC50 ABTS+ [2]
O=c1cc(-c2ccc(O)c(O)c2)oc2c(O)c(O)cc(O)c12 [Hypolaetin, 3′,4′,5,7,8-Pentahydroxyflavone] | low xanthine oxidase inhibitory activity | > 331 | 0.80 ± 0.03^FG µg/ml
COc1cc(O)c2c(=O)cc(-c3ccccc3)oc2c1 [Techtochrysin, 5-Hydroxy-7-methoxyflavone] | low xanthine oxidase inhibitory activity | > 373 | 45.59 ± 4.75^E µg/ml

Reference: article PMC5727842, “Antioxidant and Antidiabetic Effects of Flavonoids: A Structure-Activity Relationship Based Study” (BioMed Research International, 2017)
